Data reported in PubChem BioAssay AID1963825 (Molecular Pharmacology Branch, DTP, NCI, 2024).

Assay: Anticancer human tumor 997537-175-T-J1-PDC patient-derived colon adenocarcinoma cell line growth inhibition [POLQ]
Conditions: 997537-175-T-J1-PDC complex spheroid viability, combination with POLQ inhibitors; for IC50: curve of first compound; for viability, T/C: stronger effect = lower value
How it was run: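 Three-cell-type spheroids modelling solid tumor plus stroma served as the readout system; POL inhibitors were tested individually and in combination, concentration ranges set by clinical Cmax where known.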

[1] = second compound 0.0316 µM, first compound 0.0316 µM
[2] = second compound 0.0316 µM, first compound 0.1 µM
[3] = second compound 0.0316 µM, first compound 0.316 µM
[4] = second compound 0.0316 µM, first compound 1 µM
[5] = second compound 0.0316 µM, first compound 3.16 µM
[6] = second compound 0.0316 µM, first compound 10 µM
[7] = second compound 0.1 µM, first compound 0.0316 µM
[8] = second compound 0.1 µM, first compound 0.1 µM
[9] = second compound 0.1 µM, first compound 0.316 µM
[10] = second compound 0.1 µM, first compound 1 µM
[11] = second compound 0.1 µM, first compound 3.16 µM
[12] = second compound 0.1 µM, first compound 10 µM
[13] = second compound 0.316 µM, first compound 0.0316 µM
[14] = second compound 0.316 µM, first compound 0.1 µM
[15] = second compound 0.316 µM, first compound 0.316 µM
[16] = second compound 0.316 µM, first compound 1 µM
[17] = second compound 0.316 µM, first compound 3.16 µM
[18] = second compound 0.316 µM, first compound 10 µM
[19] = second compound 1 µM, first compound 0.0316 µM
[20] = second compound 1 µM, first compound 0.1 µM
[21] = second compound 1 µM, first compound 0.316 µM
[22] = second compound 1 µM, first compound 1 µM
[23] = second compound 1 µM, first compound 3.16 µM
[24] = second compound 1 µM, first compound 10 µM
[25] = second compound 3.16 µM, first compound 0.0316 µM
[26] = second compound 3.16 µM, first compound 0.1 µM
[27] = second compound 3.16 µM, first compound 0.316 µM
[28] = second compound 3.16 µM, first compound 1 µM
[29] = second compound 3.16 µM, first compound 3.16 µM
[30] = second compound 3.16 µM, first compound 10 µM
[31] = second compound 10 µM, first compound 0.0316 µM
[32] = second compound 10 µM, first compound 0.1 µM
[33] = second compound 10 µM, first compound 0.316 µM
[34] = second compound 10 µM, first compound 1 µM
[35] = second compound 10 µM, first compound 3.16 µM
[36] = second compound 10 µM, first compound 10 µM
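Also: luminescence signal used as a surrogate for viable cells; spheroids exposed to drugs for seven days before readout.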

## O=C(Nc1ccc(O)c(NS(=O)(=O)c2ccc(F)cc2)c1)c1ccc(-c2ccccc2)cc1 + Cc1cccc(N(C)C(=O)C2C(O)CCN2c2nc(C)cc(C(F)(F)F)c2C#N)c1
Second compound 0.0316 µM
  IC50: > 10 µM
Second compound 0.1 µM
  IC50: > 10 µM
Second compound 0.316 µM
  IC50: > 10 µM
Second compound 1 µM
  IC50: > 10 µM
Second compound 3.16 µM
  IC50: > 10 µM
Second compound 10 µM
  IC50: > 10 µM
[1]
  viability, T/C: 105%
[2]
  viability, T/C: 105%
[3]
  viability, T/C: 99.4%
[4]
  viability, T/C: 100%
[5]
  viability, T/C: 101%
[6]
  viability, T/C: 72.7%
[7]
  viability, T/C: 107%
[8]
  viability, T/C: 99.4%
[9]
  viability, T/C: 93.9%
[10]
  viability, T/C: 103%
[11]
  viability, T/C: 91%
[12]
  viability, T/C: 98.1%
[13]
  viability, T/C: 105%
[14]
  viability, T/C: 91.9%
[15]
  viability, T/C: 111%
[16]
  viability, T/C: 103%
[17]
  viability, T/C: 97.5%
[18]
  viability, T/C: 92.5%
[19]
  viability, T/C: 93.7%
[20]
  viability, T/C: 84.4%
[21]
  viability, T/C: 94.9%
[22]
  viability, T/C: 87.3%
[23]
  viability, T/C: 111%
[24]
  viability, T/C: 98.6%
[25]
  viability, T/C: 97.2%
[26]
  viability, T/C: 106%
[27]
  viability, T/C: 93%
[28]
  viability, T/C: 80.6%
[29]
  viability, T/C: 106%
[30]
  viability, T/C: 91.7%
[31]
  viability, T/C: 96.8%
[32]
  viability, T/C: 101%
[33]
  viability, T/C: 108%
[34]
  viability, T/C: 93%
[35]
  viability, T/C: 89.5%
[36]
  viability, T/C: 105%

## O=c1[nH]cc(F)c(=O)[nH]1 + Nc1ccc(C#CCN(C(=O)Cc2ncc(C(F)(F)F)cc2C(F)(F)F)c2ccc(F)cc2)nn1
Second compound 0.0316 µM
  IC50: > 10 µM
Second compound 0.1 µM
  IC50: > 10 µM
Second compound 0.316 µM
  IC50: > 10 µM
Second compound 1 µM
  IC50: > 10 µM
Second compound 3.16 µM
  IC50: > 10 µM
Second compound 10 µM
  IC50: > 10 µM
[1]
  viability, T/C: 98.7%
[2]
  viability, T/C: 105%
[3]
  viability, T/C: 109%
[4]
  viability, T/C: 84.9%
[5]
  viability, T/C: 95.7%
[6]
  viability, T/C: 79%
[7]
  viability, T/C: 106%
[8]
  viability, T/C: 99.8%
[9]
  viability, T/C: 95.9%
[10]
  viability, T/C: 103%
[11]
  viability, T/C: 82.6%
[12]
  viability, T/C: 88.1%
[13]
  viability, T/C: 95%
[14]
  viability, T/C: 102%
[15]
  viability, T/C: 103%
[16]
  viability, T/C: 105%
[17]
  viability, T/C: 85%
[18]
  viability, T/C: 94.1%
[19]
  viability, T/C: 94.2%
[20]
  viability, T/C: 93.9%
[21]
  viability, T/C: 83.7%
[22]
  viability, T/C: 85.8%
[23]
  viability, T/C: 73.5%
[24]
  viability, T/C: 79.9%
[25]
  viability, T/C: 101%
[26]
  viability, T/C: 110%
[27]
  viability, T/C: 118%
[28]
  viability, T/C: 86.2%
[29]
  viability, T/C: 88.6%
[30]
  viability, T/C: 72.5%
[31]
  viability, T/C: 105%
[32]
  viability, T/C: 94.5%
[33]
  viability, T/C: 103%
[34]
  viability, T/C: 91.2%
[35]
  viability, T/C: 84.1%
[36]
  viability, T/C: 81%
